Source: patent EP1147083B1, “ARYLPIPERAZINYL-CYCLOHEXYL INDOLE DERIVATIVES FOR THE TREATMENT OF DEPRESSION” (Wyeth, priority 1999, dated 2000)
Where two headings read alike, the source gives them in different places.

Tests used:
[1] = target: T1, human 5-HT1A receptor subtype (Homo sapiens, UniProt P08908); test: 5-HT1A receptor binding assay with [3H]8-OH-DPAT on CHO cell membranes; conditions: [3H]8-OH-DPAT 1.5 nM
T1 construct: expressed in transfected cells
T1 sequence (P08908 1-422): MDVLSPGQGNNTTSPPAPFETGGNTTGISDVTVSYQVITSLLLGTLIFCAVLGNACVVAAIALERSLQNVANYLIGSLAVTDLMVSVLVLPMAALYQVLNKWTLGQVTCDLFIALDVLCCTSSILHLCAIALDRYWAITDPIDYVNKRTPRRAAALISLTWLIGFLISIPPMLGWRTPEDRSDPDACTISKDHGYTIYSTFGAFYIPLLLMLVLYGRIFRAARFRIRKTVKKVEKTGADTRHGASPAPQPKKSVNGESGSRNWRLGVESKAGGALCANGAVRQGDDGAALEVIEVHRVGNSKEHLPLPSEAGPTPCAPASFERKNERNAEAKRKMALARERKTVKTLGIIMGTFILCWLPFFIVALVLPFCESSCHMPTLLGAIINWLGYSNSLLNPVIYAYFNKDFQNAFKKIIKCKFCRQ
Description: (§1) The PCR cloning of the human 5-HT1A receptor subtype from a human genomic library has been described previously Chanda et al., Mol. Pharmacol., 43:516 (1993). A stable Chinese hamster ovary cell line expressing the human 5-HT1A receptor subtype (5-HT1A.CHO cells) was employed throughout this study. Cells were maintained in DMEM supplemented with 10% foetal calf serum, non-essential amino acids and penicillin/ streptomycin.
Cells were grown to 95-100% confluency as a monolayer before membranes were harvested for binding studies. Cells were gently scraped from the culture plates, transferred to centrifuge tubes, and washed twice by centrifugation (2000 rpm for 10 min., 4°C) in buffer (50 mM Tris; pH 7.5). The resulting pellets were aliquoted and placed at -80°C. On the day of assay, the cells were thawed on ice, and resuspended in buffer. Studies were conducted using [^3H]8-OH-DPAT as the radioligand. The binding assay was performed in 96 well microtiter plates in a final total volume of 250 µL of buffer. Competition experiments were performed by using 7 concentrations of unlabelled drug and a final ligand concentration of 1.5 nM. Nonspecific binding was determined in the presence of 10 µM 5HT. Saturation analysis was conducted by using [^3H]8-OH-DPAT at concentrations ranging from 0.3-30 nM. Following a 30 minute incubation at room temperature, the reaction was terminated by the addition of ice cold buffer and rapid filtration using a M-96 Brandel Cell Harvester (Gaithersburg, MD) through a GF/B filter presoaked for 30 minutes in 0.5% polyethyleneimine.

[2] = target: T2, 5-HT1A cloned receptor membrane fragments (Homo sapiens, UniProt P08908); test: [35S]-GTPγS binding assay; type: biochemical; conditions: read-out: GTPγS (%EMax)
T2 construct: expressed in transfected cells
T2 sequence (P08908 1-422): T1 sequence (P08908 1-422)
Description: The [^35S]-GTPγS binding assay was similar to that used by Lazareno and Birdsall, Br. J. Pharmacol. 109:1120 (1993). Briefly, 5-HT1A cloned receptor membrane fragments (as used for 5-HT1A receptor binding assays) were stored at -70°C until needed. When needed, membranes were rapidly thawed, centrifuged at 40,000 x g for 10 minutes and resuspended at 4 °C for 10 minutes in assay buffer (25 mM HEPES, 3 mM MgCl2, 100 mM NaCl, 1 mM EDTA, 10 uM GDP, […], pH 8.0). These membranes were then incubated for 30 minutes at 30°C with [^35S]GTPgS (1 nM) in the presence of vehicle, test compound (one to eight concentrations), or excess 8-OH-DPAT to define maximum agonist response. All reactions are terminated by the addition of ice cold Tris buffer followed by rapid filtration using a Tom Tech® filtration device to separate bound from free [^35S]GTPgS. Agonists produce an increase in the amount of [^35S]GTPgS bound whereas antagonists produce no increase in binding. Bound radioactivity was counted and analyzed as above.

[3] = target: T3, human 5-HT1A receptor subtype (5-HT1A.CHO cells) (Homo sapiens, UniProt P08908); test: cAMP formation in forskolin-treated cells (cAMP SPA assay); type: cell-based; conditions: value in brackets; forskolin 1 uM
T3 construct: expressed in transfected cells
T3 sequence (P08908 1-422): T1 sequence (P08908 1-422)
Description: as §1
The following assays were performed by incubating the cells with DMEM containing 25 mM HEPES, 5 mM theophylline and 10 µM pargyline for a period of 20 minutes at 37°C. Functional activity was assessed by treating the cells with forskolin (1 uM final concentration) followed immediately by test compound (6 concentrations) for an additional 10 minutes at 37°C. In separate experiments, 6 concentrations of antagonist were preincubated for 20 minutes prior to the addition of 10 nM 8-OH-DPAT and forskolin. The reaction was terminated by removal of the media and addition of 0.5 ml ice cold assay buffer. Plates were stored at -20°C prior to assessment of cAMP formation by a cAMP SPA assay (Amersham).

[4] = value in brackets, or a lone % in the cell, maximum agonist response defined by excess 8-OH-DPAT

Structure (SMILES) | Ki [1] [µM] | Emax [2, 4] [%] | Emax [3] [%] | Emax [2] [%]
Fc1ccc2[nH]cc([C@H]3CC[C@@H](N4CCN(c5cccc6[nH]ccc56)CC4)CC3)c2c1 [Example 3a, 5-Fluoro-3-[cis-4-[4-(1H-indot-4-yl)-1-piperazinyl]cyclohexyl]-1H-indole] | 0.0367 |  | 0 | 10
Fc1ccc2[nH]cc([C@H]3CC[C@H](N4CCN(c5cccc6[nH]ccc56)CC4)CC3)c2c1 [Example 3b, 5-Fluoro-3-[trans-4-[4-(1H-indol-4-yl)-1-piperazinyl]cyclohexyl]-1H-indole] | 0.00462 |  | 0 | 51
N#Cc1ccc2[nH]cc([C@H]3CC[C@@H](N4CCN(c5cccc6[nH]ccc56)CC4)CC3)c2c1 [Example 7a, 3-{4-[(1,4-cis)-4-(1H-indol-4-yl)-piperazinyl-1-yl]cyclohexyl} -1H-indole-5-carbonitrile] |  |  | 0 | 
c1cc(N2CCN([C@H]3CC[C@@H](c4c[nH]c5ncccc54)CC3)CC2)c2cc[nH]c2c1 [Example 10a, 3-{(1,4-cis)-4-[4-(1H-Indole-4-yl)-piperazin-1-yl]-cyclohexyl}-1H-pyrrolo[2,3-b]pyridine] |  |  | 0 | 
Fc1ccc2[nH]cc([C@H]3CC[C@@H](N4CCN(c5cccc6c5OCCO6)CC4)CC3)c2c1 [Example 24a, 3-{(1,4-cis)-4-[4-(2,3-Dihydro-benzo[1,4]dioxin-5-yl)-piperazin-1-yl]-cyclohexyl}-5-fluoro-1H-indole] |  |  |  | 15.4
Fc1ccc2[nH]cc([C@H]3CC[C@H](N4CCN(c5cccc6c5OCCO6)CC4)CC3)c2c1 [Example 24b, 3-{(1,4-trans)-4-[4-(2,3-Dihydro-benzo[1,4]dioxin-5-yl)-piperazin-1-yl]-cyclohexyl}-5-fluoro-1H-indole] |  |  |  | 73
Fc1ccc2c(c1)[nH]cc2[C@H]1CC[C@@H](N2CCN(c3cccc4c3OCCO4)CC2)CC1 [Example 25a, 3-{(1,4-cis)-4-[4-(2,3-Dihydro-benzo[1,4]dioxin-5-yl)-piperazin-1-yl]-cyclohexyl}-6-fluoro-1H-indole] |  |  |  | 9
Fc1ccc2[nH]cc([C@H]3CC[C@H](N4CCN(c5cccc6cccnc56)CC4)CC3)c2c1 [Example 27b, 8-{4-[(1,4-trans)-4-(5-Fluoro-1H-indol-3-yl)-cyclohexyl] -piperazin-1-yl}-quinoline] |  |  |  | 66
Cn1cc([C@H]2CC[C@@H](N3CCN(c4cccc5cccnc45)CC3)CC2)c2cc(F)ccc21 [Example 28, 8-{4-(1,4-cis)-4-[4-(5-Fluoro-1-methyl-1H-indol-3-yl)-cyclohexyl] -piperazin-1-yl}-quinoline] |  |  | 0 | 0
N#Cc1ccc2[nH]cc([C@H]3CC[C@@H](N4CCN(c5cccc6cccnc56)CC4)CC3)c2c1 [Example 29a, 3-[(1,4-cis)-4-(4-Quinolin-8-yl-piperazin-1-yl)-cyclohexyl] -1H-indole-5-carbonitrile] |  |  |  | 23

The next lines start with results.

Ki [1] [µM] | Emax [2, 4] [%] | Emax [3] [%] | Structure (SMILES) | Emax [2] [%]
0.032 | 0 | 0 | c1cc(N2CCN([C@H]3CC[C@@H](c4c[nH]c5ccccc54)CC3)CC2)c2cc[nH]c2c1 [Example 1a, 3-[cis-4-[4-(1H-Indol-4-yl)-1-piperazinyl]cyclohexyl]-1H-indole] | 
0.00529 | 32 | 77 | c1cc(N2CCN([C@H]3CC[C@H](c4c[nH]c5ccccc54)CC3)CC2)c2cc[nH]c2c1 [Example 1b, 3-[trans-4-[4-(1H-indol-4-yl)-1-piperazinyl]cyclohexyl]-1H-indole] | 
0.117 |  |  | Fc1cccc2[nH]cc([C@H]3CC[C@@H](N4CCN(c5cccc6[nH]ccc56)CC4)CC3)c12 [Example 2a, 4-Fluoro-3-[cis-4-[4-(1H-indol-4-yl)-1-piperazinyl]cyclohexyl]-1H-indole] | 
0.0223 |  |  | Fc1cccc2[nH]cc([C@H]3CC[C@H](N4CCN(c5cccc6[nH]ccc56)CC4)CC3)c12 [Example 2b, 4-Fluoro-3-[trans-4-[4-(1H-indol-4-yl)-1-piperazinyl]cyclohexyl]-1H-indole] | 
0.0335 | 0 | 0 | Fc1ccc2c(c1)[nH]cc2[C@H]1CC[C@@H](N2CCN(c3cccc4[nH]ccc34)CC2)CC1 [Example 4a, 6-Fluoro-3-[cis-4-[4-(1H-indol-4-yl)-1-piperazinyl]cyclohexyl]-1H-indole] | 
0.00545 |  | 7.5 | Fc1ccc2c(c1)[nH]cc2[C@H]1CC[C@H](N2CCN(c3cccc4[nH]ccc34)CC2)CC1 [Example 4b, 6-Fluoro-3-[trans-4-[4-(1H-indol-4-yl)-1-piperazinyl]cyclohexyl]-1H-indole] | 
0.0583 |  |  | Clc1ccc2[nH]cc([C@H]3CC[C@H](N4CCN(c5cccc6[nH]ccc56)CC4)CC3)c2c1 [Example 6b, 5-Chloro-3-[trans-4-[4-(1H-indol-4-yl)-1-piperazinyl]cyclohexyl]-1H-indole] | 
0.0603 | 0 | 0 | COc1ccc2[nH]cc([C@H]3CC[C@@H](N4CCN(c5cccc6[nH]ccc56)CC4)CC3)c2c1 [Example 8a, 5-Methoxy-3-[cis-4-[4-(1H-indol-4-yl)-1-piperazinyl]cyclohexyl]-1H-indole] | 
0.00287 | 32 | 77 | COc1ccc2[nH]cc([C@H]3CC[C@H](N4CCN(c5cccc6[nH]ccc56)CC4)CC3)c2c1 [Example 8b, 5-Methoxy-3-[trans-4-[4-(1H-indol-4-yl)-1-piperazinyl]cyclohexyl]-1H-indole] | 
0.0871 |  |  | Cc1[nH]c2ccccc2c1[C@H]1CC[C@@H](N2CCN(c3cccc4[nH]ccc34)CC2)CC1 [Example 9a, 3-[cis-4-[4-(1H-Indol-4-yl)-1-piperazinyl]cyclohexyl] -2-methyl-1H-indole] | 
0.013 |  |  | Cc1[nH]c2ccccc2c1[C@H]1CC[C@H](N2CCN(c3cccc4[nH]ccc34)CC2)CC1 [Example 9b, 3-[trans-4-[4-(1H-Indol-4-yl)-1-piperazinyl]cyclohexyl] -2-methyl-1H-indole] | 
 |  | 0 | Fc1ccc2[nH]cc([C@H]3CC[C@@H](N4CCN(c5cccc6cccnc56)CC4)CC3)c2c1 [Example 27a, 8-{4-[(1,4-cis)-4-(5-Fluoro-1H-indol-3-yl)-cyclohexyl] -piperazin-1-yl}-quinoline] | 20
 | 0 | 0 | COc1cc(N2CCN([C@H]3CC[C@@H](c4c[nH]c5ccc(C#N)cc54)CC3)CC2)c2ncccc2c1 [Example 44c, 3-{(1,4-cis)-4-[4-(6-Methoxy-quinolin-8-yl)-piperazin-1-yl]-cyclohexyl}-1H-indole-5-carbonitrile] | 
